According to patent US11339144B2 (Navitor Pharmaceuticals, Inc., priority 2017, dated 2022):

Assays:
[1] = biological target: HA-GST-Rheb (GTP-γ-S loaded) activating mTORC1 (Homo sapiens (Human), UniProt Q15382); experiment: Rheb-dependent in vitro kinase assay (Rheb-IVK; LanthaScreen or Western readout); type: biochemical; settings: Rheb-dependent in vitro kinase assay; read-out: IVK IC50
[2] = biological target: Rheb (Homo sapiens (Human), UniProt Q15382); experiment: Affinity Selection Mass Spectrometry (ASMS); type: binding; settings: affinity (R3/R0) in Affinity Selection Mass Spectrometry assay
Description: Method 2 (Affinity Selection Mass Spectrometry
Protein: Rheb (19 KDa) in the following buffer: 20 mM Tris, pH 8.0, 200 mM NaCl, 2 mM DTT, 5 mM MgCl2 was prepared as under.
Human Rheb protein (I-169) was purified from BL21 (DE3) E. coli using a His-Smt-Rheb expression vector. The cell paste was lysed in lysis buffer (50 mM HEPES pH 7.5, 0.5 M NaCl, 5% Glycerol, 1% CHAPS, EDTA free protease inhibitor tablets, lysozyme to 1 mg/mL, benzonase 250U), sonicated, and purified on a HiTrap Ni Chelating Column (GE Healthcare) using the following buffer: 50 mM HEPES pH 7.5, 0.5 M NaCl, 5% Glycerol, and imidazole increasing in concentration from 5 mM to 500 mM. The His-Smt tag was cleaved using a U1p1 enzyme and dialyzed into 50 mM HEPES pH 7.5, 0.5 M NaCl, 5% Glycerol. The resultant protein was again purified on a Ni Chelating column to remove the U1p1 enzyme and His-Smt tag and then purified by size exclusion chromatography on a Sephacryl S-100 26/60 column into the following final buffer: 20 mM NaPhos pH 7.0, 100 mM NaCl, 5 mM MgCl2, 2 mM TCEP.
Concentrations: 60 μM Rheb, 180 μM GDP and 2 μM of each compound,
Ultrafiltration Filter (Sartorius, Germany) MW cutoff: 10 KDa
• (a) Sample preparation: Prepare sample for each group in 1.5 mL microcentrifuge tube according to the experimental design, total volume 550 μL. In a standard ASMS experiment there are two groups: Protein plus (P+L+) and protein minus (P−L+). • (b) Transfer 50 μL from the 550 μL to a vial as R0 sample. Incubate the rest solution for 30 min at room temperature. Then transfer the 500 μL into an ultrafiltration filter tube and centrifuge at 12×10^3 rpm for ˜10 min, leave about 50 μL solution (otherwise adjust this time). • (c) Add incubation buffer to the ultrafiltration filter tube to about 500 μL. Stir gently and centrifuge mixtures as above, leave about 50 μL solution. • (d) Repeat the step c. Transfer the remaining 50 μL upper layer solution to a new vial as R^3 sample. Sample Extraction: Add 150 μL MeCN to denature the protein completely. Centrifuge at 12×10^3 rpm for 5 min. Transfer the supernatant into LC-MS auto sampler vials for LC-MS analysis (5 uL injection).
Waters Acquity UPLC system, Waters ACQUITY UPLC BEH C18 column (2.1×50 mm, 1.7 μM); Mobile phase A: 0.1% formic acid solution, B: MeCN; 0.3 mL/min, 5 μL injection, gradient elution (Table 5).
Waters Synapt G1 Q-TOF system, positive or negative ion scan modes; Capillary voltage: 3.0 kV; Method: MSE; Mass range: m/z=100-1000; Source temperature: 120° C.; Desolvation temperature: 400° C.; Collision voltage: 35 V; Sampling Cone: 35 V; Extraction Cone: 4.0 V; Cone Gas: 50 L/h; Desolvation Gas: 800 L/h.

Rheb, sequence (Q15382 1-169 limits assumed): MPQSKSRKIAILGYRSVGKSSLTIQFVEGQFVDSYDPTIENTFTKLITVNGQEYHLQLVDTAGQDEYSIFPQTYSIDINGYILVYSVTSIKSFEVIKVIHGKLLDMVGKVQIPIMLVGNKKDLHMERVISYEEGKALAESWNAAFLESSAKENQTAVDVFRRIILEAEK
HA-GST-Rheb (GTP-γ-S loaded) activating mTORC1, sequence (Q15382 1-181): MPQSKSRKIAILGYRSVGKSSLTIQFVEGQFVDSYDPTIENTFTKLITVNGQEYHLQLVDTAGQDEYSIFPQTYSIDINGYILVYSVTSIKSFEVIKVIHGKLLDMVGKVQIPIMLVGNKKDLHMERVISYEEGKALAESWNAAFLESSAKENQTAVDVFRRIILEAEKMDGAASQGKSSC

Molecule	IC50 [1] [µM]	ASMS (R3/R0) [2]
O=C1CCc2ccc(Oc3cc(Cl)cc4[nH]c(C(=O)O)cc34)cc2N1 [I-108, 6-chloro-4-(2-oxo-1,2,3,4-tetrahydroquinolin-7-yloxy)-1H-indole-2-carboxylic acid]	100 to 300	B (an affinity (R3/R0) between 100% and 20%)
OCc1cc2c(Br)cc(SCc3ccc(Cl)cc3)cc2[nH]1 [I-145, (4-bromo-6-(4-chlorobenzylthio)-1H-indol-2-yl)methanol]	10 to 100	B (an affinity (R3/R0) between 100% and 20%)
Clc1ccc(Sc2cc(Cl)cc3[nH]c(-c4ccnc5[nH]ccc45)nc23)cc1 [I-326, 6-chloro-4-(4-chlorophenylthio)-2-(1H-pyrrolo[2,3-b]pyridin-4-yl)-1H-benzo[d]imidazole]	10 to 100	B (an affinity (R3/R0) between 100% and 20%)
OCc1nc2cc(OCc3ccccc3)c(Cl)cc2[nH]1 [I-492]	> 100	C (an affinity (R3/R0)<20%)
Clc1cc2nc(-c3ccc(-c4nn[nH]n4)cc3)[nH]c2cc1Cl [I-344]	> 100	A (an affinity (R3/R0)>100%)
OCc1nc2c(OC[C@H]3CCCC[C@H]3O)c(Cl)c(Cl)cc2[nH]1 (racemic) [I-394, (+,−)-cis-2-((5,6-dichloro-2-(hydroxymethyl)-1H-benzo[d]imidazol-4-yloxy)methyl)cyclohexanol]	10 to 100	B (an affinity (R3/R0) between 100% and 20%)
CN1CCN(C(=O)c2cc3c(Sc4ccc(Cl)cc4)cc(Cl)cc3[nH]2)CC1 [I-90]	> 100	B (an affinity (R3/R0) between 100% and 20%)
CN1CCC(CNC(=O)c2nc3cc(OCc4ccc(Cl)cc4)c(Cl)c(Cl)c3[nH]2)CC1 [I-337, 6,7-dichloro-5-(4-chlorobenzyloxy)-N-((1-methylpiperidin-4-yl)methyl)-1H-benzo[d]imidazole-2-carboxamide]	> 3	B (an affinity (R3/R0) between 100% and 20%)
O=C(NO)c1cc2c(Sc3ccc(Cl)cc3)cc(Cl)cc2[nH]1 [I-177, 6-chloro-4-(4-chlorophenylthio)-N-hydroxy-1H-indole-2-carboxamide]	10 to 100	A (an affinity (R3/R0)>100%)
O=C(O)c1cc2c(Br)cc(Sc3ccc(Cl)c(Cl)c3)cc2n1Cc1ccc(C(=O)N2CCNCC2)cc1 [I-43]	> 100	A (an affinity (R3/R0)>100%)
OCc1cc2c(Sc3ccc(Oc4ccccc4)cc3)cc(Cl)cc2[nH]1 [I-116, (6-chloro-4-(4-phenoxyphenylthio)-1H-indol-2-yl)methanol]	< 10	B (an affinity (R3/R0) between 100% and 20%)
OCc1nc2cc(Cl)c(OCCc3ccc(Cl)cc3)cc2[nH]1 [I-380, (5-chloro-6-(4-chlorophenethoxy)-1H-benzo[d]imidazol-2-yl)methanol]	10 to 100	B (an affinity (R3/R0) between 100% and 20%)
4-bromo-6-(3,4-dichlorophenylthio)-1-(4-((2-hydroxyethyl)(methyl)carbamoyl)benzyl)-1H-indole-2-carboxylic acid [I-51]	< 10	B (an affinity (R3/R0) between 100% and 20%)
OCc1cc2c(Oc3cccc(Cl)c3)cc(Cl)cc2[nH]1 [I-215, (6-chloro-4-(3-chlorophenoxy)-1H-indol-2-yl)methanol]	10 to 100	B (an affinity (R3/R0) between 100% and 20%)
CN(C)C(=O)c1ccc(Cn2c(-c3nn[nH]n3)cc3c(Br)cc(Sc4ccc(Cl)c(Cl)c4)cc32)cc1 [I-14]	> 3	B (an affinity (R3/R0) between 100% and 20%)
Fc1ccccc1Oc1cccc2[nH]ccc12 [I-288, 4-(2-fluorophenoxy)-1H-indole]	100 to 300	C (an affinity (R3/R0)<20%)
Cn1ccc2c(Oc3ccccc3Cl)cccc21 [I-269]	> 100	–
Cn1c(CO)cc2c(Sc3ccc(Cl)cc3)cc(Cl)cc21 [I-206]	> 100	–
NC(=O)c1ccc(Cn2c(-c3ncco3)nc3cc(Cl)c(Cl)cc32)cc1 [I-451]	> 100	–
OCc1nc2cc(Cl)c(OCc3ccccc3)cc2n1Cc1ccccc1 [I-467]	> 100	–
Nc1nccc(COc2c(Cl)c(Cl)cc3[nH]c(CO)nc23)n1 [I-423]	> 100	–
OCc1nc2cc(OCCc3ccccc3)c(Cl)cc2[nH]1 [I-483, (6-chloro-5-phenethoxy-1H-benzo[d]imidazol-2-yl)methanol]	300 to 800	–
OCc1cc2c(Oc3ccccc3F)cccc2[nH]1 [I-277, (4-(2-fluorophenoxy)-1H-indol-2-yl)methanol]	300 to 800	–
OCc1nc2c(OC[C@H]3CCCC[C@@H]3O)c(Cl)c(Cl)cc2n1Cc1cc(Cl)ccc1Cl [I-393]	> 100	–

Molecule	IC50 [1] [µM]	ASMS (R3/R0) [2]
OCc1nc2cc(OCc3cccc(Cl)c3)c(Cl)cc2[nH]1 [I-478, (5-chloro-6-(3-chlorobenzyloxy)-1H-benzo[d]imidazol-2-yl)methanol]	300 to 800	–
Cn1ccc(-c2cc(Oc3ccccc3)cc3[nH]c(CO)cc23)n1 [I-213]	> 100	–
CCn1c(CO)nc2cc(OCc3ccccc3)ccc21 [I-416]	> 100	–
OCc1nc2c(OC[C@H]3CCCC[C@@H]3O)c(Cl)c(Cl)cc2n1Cc1nn[nH]n1 (racemic) [I-391, (+,−)-trans-2-((1-((2H-tetrazol-5-yl)methyl)-5,6-dichloro-2-(hydroxymethyl)-1H-benzo[d]imidazol-4-yloxy)methyl)cyclohexanol]	10 to 100	–
Clc1cc2nc(-c3cnon3)n(Cc3ccc(-c4nn[nH]n4)cc3)c2cc1Cl [I-474, 3-(1-(4-(2H-tetrazol-5-yl)benzyl)-5,6-dichloro-1H-benzo[d]imidazol-2-yl)-1,2,5-oxadiazole]	300 to 800	–
COc1ccc(Sc2cc(Cl)cc3[nH]c(C(=O)O)cc23)cc1OC [I-138, 6-chloro-4-(3,4-dimethoxyphenylthio)-1H-indole-2-carboxylic acid]	100 to 300	–
CCn1c(CO)nc2cc(Oc3ccccc3)c(Cl)cc21 [I-455]	> 100	–
OCc1nc2c(OCCc3c[nH]cn3)c(Cl)c(Cl)cc2[nH]1 [I-384]	> 100	–
OCc1nc2c(OCC3CCCN3)c(Cl)c(Cl)cc2[nH]1 (stereo not drawn) [I-468]	> 100	–
OCc1cc2c(Oc3ccccc3Cl)cccc2[nH]1 [I-276, (4-(2-chlorophenoxy)-1H-indol-2-yl)methanol]	100 to 300	–
Cn1c(CO)cc2c(Oc3ccc(Cl)cc3)cccc21 [I-259]	> 100	–
CCCn1c(CO)nc2cc(OCc3ccccc3)c(Cl)cc21 [I-479]	> 100	–
OCc1nc2cc(OCc3ccc(F)cc3)c(Cl)cc2[nH]1 [I-482, (6-chloro-5-(4-fluorobenzyloxy)-1H-benzo[d]imidazol-2-yl)methanol]	100 to 300	–
CCOCc1nc2cc(OCc3ccccc3)cc(Cl)c2n1CC [I-414]	> 100	–
Cn1ccc2c(NC3CCNCC3)cccc21 [I-297, 1-methyl-N-(piperidin-4-yl)-1H-indol-4-amine]	300 to 800	–
Cn1c(CO)nc2c(OC[C@H]3CCCC[C@@H]3O)c(Cl)c(Cl)cc21 (racemic) [I-387, (+,−)-trans-2-((5,6-dichloro-2-(hydroxymethyl)-1-methyl-1H-benzo[d]imidazol-4-yloxy)methyl)cyclohexanol]	100 to 300	–
Cc1cc2c(Sc3ccc(Cl)cc3)cccc2[nH]1 [I-203]	> 100	–
CNC(=O)c1ccc(Sc2cccc3[nH]ccc23)cc1 [I-184]	> 100	–
OCc1nc2c(Oc3ccccc3)cccc2[nH]1 [I-470]	> 100	–
(4-(2-(2-aminopyridin-4-yl)ethoxy)-5,6-dichloro-1H-benzo[d]imidazol-2-yl)methanol [I-182]	> 100	–
CCn1c(CO)nc2cc(Cl)c(OCc3ccc(F)cc3)cc21 [I-445]	> 100	–
Cc1cc(Oc2ccccc2)cc2[nH]c(CO)cc12 [I-238]	> 100	–
Clc1ccc2c(c1)nc(-c1ncco1)n2Cc1ccc(-c2nn[nH]n2)cc1 [I-410]	> 100	–
